Source: patent publication US7455990B2, “Method of extracting recombinant hexose oxidase” (priority 1999, dated 2008)
Marks after values point to notes of the source that are not given here.

Experiments:
[1] = system: cell suspension (HOX9910B); assay: Comparison between CTAB and other emulsifiers for extraction of HOX; type: cell-based, Hansenula polymorpha; conditions: 20 h, 25°C, control (cells and buffer) = 100
Protocol: Five mL of cell suspension (cells+supernatant) was added to a 15 mL centrifuge tube (HOX9910B, 305 g cells/liter wet weight, 1.6 U/ml extracellular HOX activity). Cells were separated by centrifugation at 4000 g for 10 min. Cells were then re-suspended in 4.0 mL 25 mM citric acid, pH 6.3 supplemented with either CTAB, emulsifiers SLL, YN, capric acid, lysolecithin, or lecithin. The cells were then incubated for 20 hours at 25° C. (500 rpm).

Hansenula polymorpha [2] = assay: HOX extraction with different quaternary ammonium compounds; type: cell-based; conditions: final concentration 0.4% (w/v); 24 h, 25°C, 200 RPM; LTAB = 100
Protocol: Several quaternary ammonium compounds were tested with respect to extraction of the intracellular HOX enzyme from Hansenula polymorpha. A sample of fermentation broth was withdrawn from a 6 L scale fermentation where the biomass concentration was approximately 340 g wet weight per L. One mL of a 4% (w/v) solution of each of the quaternary ammonium compounds listed in Table 8 was added to 9 mL of fermentation broth in plastic tubes. After 24 h of incubation at 25° C. at 200 RPM the tubes were centrifuged 10 min. at 12000 g. The supernatants were analysed for HOX activity using the HOX assay as previously described.

[3] = system: cell suspension (HOX9926-7); assay: Extraction of HOX by CTAB combined with salts and at different temperatures; type: cell-based, Hansenula polymorpha; conditions: for HOX activity, %: 26 h, 25°C, control = 100
Protocol: In order to examine the mechanism of the CTAB effect, CTAB was combined with chaotrophic and nonchaotrophic salts. Five mL cell suspension (cells+supernatant) was added to a 15 mL centrifuge tube (HOX9926-7, 317 g cells/liter wet weight, 0.3 U/mL extracellular HOX activity). Cells were separated by centrifugation at 4000 g for 10 min. The supernatant was then supplemented with either CTAB, CTAB+NaCl, CTAB+urea, CTAB+ammonium sulphate, or the non-ionic detergent, octyl-glucoside. The cells were then re-suspended in 4.0 mL supernatant and incubated for 26 hours at 25° C. (500 rpm). In this experiment, the effect of shaking and temperature was also investigated. After incubation, the cell-free extract was used to estimate HOX activity using the HOX assay as outlined in Example 4.

Hansenula polymorpha [4] = assay: Time course of HOX extraction with CTAB, LTAB and CTAC; type: cell-based; conditions: 25°C
Protocol: The time course of HOX extraction was studied with CTAB, LTAB and CTAC. A fermentation sample containing 280 g wet weight of Hansenula polymorpha per L was withdrawn from the fermentor. A 4% (w/v) solution of CTAB, LTAB and CTAC was added to a final concentration of 0.2 or 0.4% (w/v) to plastic tubes containing 9 mL of fermentation broth. After 0, 7, 17, 24, and 48 h of incubation at 25° C. at 200 RPM the tubes were centrifuged 10 min. at 12000×g. The supernatants were analysed for HOX activity using the HOX assay as previously described.

[5] = system: Pichia pastoris strain #349; assay: HOX extraction with LTAB from Pichia pastoris; type: cell-based; conditions: 180 μL of 10% (w/v) LTAB in 9 mL broth; 24 h, 30°C; control = 100
Protocol: The extracting effect of LTAB was tested on the Pichia pastoris strain #349 that produces HOX intracellularly. A sample of fermentation broth was withdrawn from a 6 L scale fermentation where the biomass concentration was approximately 232 g wet weight per L. Nine mL of fermentation broth was added to plastic tubes together with 0 (control) or 180 μL of a 10% (w/v) solution of LTAB. After 24 h of incubation at 30° C. at 20 RPM the tubes were centrifuged 5 min. at 9000 g. The supernatants were analysed for HOX activity using the HOX assay as previously described.

[6] = Determination of LTAB by LC-ESI-MS (optimised method) in fermentation supernatants; conditions: 0.20% (w/v) LTAB added
Protocol: The analysis method for the quaternary ammonium compounds was optimised by using a different column, and by using different mobile phase. Two 90 L scale fermentations (Vest0002b with a biomass concentration of 314 g/L wet cells and Vest0003b with a biomass concentration of 332 g/L wet cells) were added LTAB to a concentration of 0.20% (w/v), and HOX was extracted for 24 h. A sample from each fermentation was centrifuged at 10000 g for 10 minutes, and the resulting supernatants were withdrawn for LTAB analysis. The following method was used to quantify the LTAB content in the supernatants by means of LC-ESI-MS on a Hewlett-Packard 1100 HPLC-MS system consisting of the following units:
The system was equipped with a PLRP-S, 100 Å, 5 μm, 250×4.6 […] id. (Polymer Laboratories) column. Column temperature was 25° C.
The chromatographic conditions were a mobile phase consisting of 0.1% heptafluorobutyric acid in methanol. The column was run with a solvent flow rate of 1.00 mL/min and an injection volume of 5 μL. The samples were diluted 25 fold with methanol and filtered through Gelman GHP Acrodisc 13 mM Minispike […] before injection.
The detector settings were the following: SIM parameters: m/z 228.1 (lauroyltrimethylammonium cation). […]

H. polymorpha = assay: Comparison of mechanical and LTAB recovery of glucan lyase (DNS method); type: cell-based, Hansenula polymorpha; conditions: induced cells, transformants 2 and 8; 0.2% LTAB versus Mini Bead-Beater
Protocol: The cells are resuspended in 5 mM sodium acetate pH=5.5 with 0.2% LTAB at 30% wet biomass in order to lyse the cells and release the intracellular glucan lyase.
The tubes are incubated over night with shaking at 37° C. The cells are harvested by centrifuging at 4000 rpm in 10 minutes and the glucan lyase activity is determined in the cell-free extract and in the pellet. This is done to check if LTAB had opened the cells successfully before starting the purification of glucan lyase.
Two transformants that expressed a high level of glucan lyase (transformant number 2 and 8) are grown at 24° C.
To compare the specific activity under repressed and induced conditions samples are collected when the cells are grown in YND+2% glucose (repressed) and in YND+1% glycerol with 1% methanol added on the second day of growth (induced).
The assay is performed as described in S. Yu et al., 1998. The red colour indicates glucan lyase activity is much stronger when the induced cells are opened with LTAB compared with opening of the cells mechanically on a Mini Bead-Beater (E1-E12 compared with C1-C12). […] When the cells are grown in YND+2% glucose a very low specific activity is observed as expected since the FMD promoter is repressed in this media. […] The assay detected a quite high glucan lyase activity in the pellet.

Hansenula polymorpha [7] = assay: HOX extraction with CTAB compared to Triton X-100; type: cell-based; conditions: for HOX activity: 22 h, 25°C, 200 rpm, control ferment 1.2
Protocol: CTAB or Triton X-100 was added to 5 mL of ferment, (sample HOX9954, Mut 45, 18.10.99, HVP) in a centrifuge tube. Water was added to the control. The samples were incubated at 25° C. for 22 h at 200 rpm. After incubation the samples were centrifuged and the supernatant was analyzed for HOX activity as previously described.

[8] = 0.4% in 25 mM citric acid pH 6.3
[9] = 0.5% in 25 mM citric acid pH 6.3
[10] = 1.0% in 25 mM citric acid pH 6.3

3-sn-phosphatidylcholine [lecithin]
HOX activity, % [1, 8]: 140%

CCCCCCCCCCCCCC[N+](C)(C)C.[Cl-] [MTAC, Myristyl Trimethyl Ammonium Chloride]
Extracted HOX activity normalised with extracted amount with LTAB (Hansenula polymorpha [2]): 71

CCCCCCCCCCCCCCCCCC(=O)[N+](C)(C)C.[Br-] [STAB, Stearoyl Trimethyl Ammonium Bromide]
Extracted HOX activity normalised with extracted amount with LTAB (Hansenula polymorpha [2]): 38

CCCCCCCCCC(=O)O [capric acid, decanoic acid]
HOX activity, % [1, 9]: 120%
HOX activity, % [1, 10]: 140%

CCCCCCCCCCCC(=O)OC(C)C(=O)OC(C)C(=O)[O-].[Na+] (stereo not shown) [emulsifier SSL, Sodium Lauroyl Lactylate]
HOX activity, % [1, 9]: 160%
HOX activity, % [1, 10]: 140%

CCCCCCCCO[C@@H]1O[C@H](CO)[C@@H](O)[C@H](O)[C@H]1O [octyl-glycoside, octyl-glucoside]
extracting effect on HOX ([3]; 0.2% and 0.4%): no significant extracting effect
HOX activity, % ([3]; 0.2%): 130%
HOX activity, % ([3]; 0.4%, 500 rpm): 190%

Lauroyl Trimethyl Ammonium Bromide [LTAB]
Extracted HOX normalised to 0.4% (w/v) LTAB after 48 h (Hansenula polymorpha [4]; 0.2% (w/v), 0 h): 5
Extracted HOX normalised to 0.4% (w/v) LTAB after 48 h (Hansenula polymorpha [4]; 0.2% (w/v), 7 h): 15
Extracted HOX normalised to 0.4% (w/v) LTAB after 48 h (Hansenula polymorpha [4]; 0.2% (w/v), 17 h): 49
Extracted HOX normalised to 0.4% (w/v) LTAB after 48 h (Hansenula polymorpha [4]; 0.2% (w/v), 24 h): 65
Extracted HOX normalised to 0.4% (w/v) LTAB after 48 h (Hansenula polymorpha [4]; 0.2% (w/v), 48 h): 78
Extracted HOX normalised to 0.4% (w/v) LTAB after 48 h (Hansenula polymorpha [4]; 0.4% (w/v), 0 h): 6 ± 1,
Extracted HOX normalised to 0.4% (w/v) LTAB after 48 h (Hansenula polymorpha [4]; 0.4% (w/v), 7 h): 25
Extracted HOX normalised to 0.4% (w/v) LTAB after 48 h (Hansenula polymorpha [4]; 0.4% (w/v), 17 h): 74
Extracted HOX normalised to 0.4% (w/v) LTAB after 48 h (Hansenula polymorpha [4]; 0.4% (w/v), 24 h): 83 ± 8,
Extracted HOX normalised to 0.4% (w/v) LTAB after 48 h (Hansenula polymorpha [4]; 0.4% (w/v), 48 h): 100 ± 25,
Extracted HOX activity normalised to the control tube without LTAB [5]: 3000^c
share of the added LTAB found in the cell free fraction [6]: about 27%
Extracted HOX activity normalised with extracted amount with LTAB (Hansenula polymorpha [2]): 100
specific activity of glucan lyase, LTAB-treated cells versus mechanical opening (H. polymorpha): ~60 fold

lysophosphatidylcholine [lyso-lecithin]
HOX activity, % [1, 8]: 260%

polyethoxylated octylphenol [Triton X-100]
HOX activity (Hansenula polymorpha [7]; 0.1%): 1.5 U/mL
extracting effect on HOX (Hansenula polymorpha [7]; 0.1-1.0%): no extracting effect
HOX activity (Hansenula polymorpha [7]; 0.2%): 1.6 U/mL
HOX activity (Hansenula polymorpha [7]; 0.4%): 1.8 U/mL
HOX activity (Hansenula polymorpha [7]; 0.6%): 1.9 U/mL
HOX activity (Hansenula polymorpha [7]; 1.0%): 1.9 U/mL
